Values joined by “and” are separate entries in the source; they are usually repeats but may differ in a detail not shown here. Equal values may be shown once. Toxic doses and inconclusive results are not listed.
System: CD2F1 mice, L1210 leukemia ip, survival T/C
Test: NCI In Vivo Anticancer Drug Screen. Data for tumor model L1210 Leukemia (intraperitoneal) in CD2F1 (CDF1) mice
Conditions: higher = longer survival
In short: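 Mice carrying a transplanted tumor received test compound or vehicle alone. The value is the measurement in the treated group divided by that in the vehicle-treated control group.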

[1] = endpoint: mean survival time, dose: 12.5 mg/kg/injection, schedule: Q01DX009 (ip), vehicle: saline with Tween-80
[2] = endpoint: mean survival time, dose: 100.0 mg/kg/injection, schedule: Q04DX003 (ip), vehicle: saline with Tween-80
[3] = endpoint: mean survival time, dose: 200.0 mg/kg/injection, schedule: Q04DX003 (ip), vehicle: saline with Tween-80
[4] = endpoint: mean survival time, dose: 400.0 mg/kg/injection, schedule: Q04DX003 (ip), vehicle: saline with Tween-80

Compound: CC(C)NC(=O)C1CC2c3cccc4[nH]c(Br)c(c34)CC2N(C)C1 (stereo unspecified)
- T/C (endpoint: mean survival time, dose: 5.0 mg/kg/injection, schedule: Q01DX009 (ip), vehicle: saline with Tween-80): 90 % of control
- T/C (endpoint: mean survival time, dose: 10.0 mg/kg/injection, schedule: Q01DX009 (ip), vehicle: saline with Tween-80): 104 % of control
- T/C (endpoint: mean survival time, dose: 20.0 mg/kg/injection, schedule: Q01DX009 (ip), vehicle: saline with Tween-80): 94 % of control

Compound: O=c1[nH]c2ccccc2nc1CBr
- T/C (endpoint: mean survival time, dose: 3.75 mg/kg/injection, schedule: Q01DX009 (ip), vehicle: saline with Tween-80): 98 % of control
- T/C (endpoint: mean survival time, dose: 7.5 mg/kg/injection, schedule: Q01DX009 (ip), vehicle: saline with Tween-80): 110 % of control
- T/C [1]: 113 % of control
- T/C (endpoint: mean survival time, dose: 15.0 mg/kg/injection, schedule: Q01DX009 (ip), vehicle: saline with Tween-80): 104 % of control

Compound: CCCCCCCCCCCCCCCC[N+](C)(CCO)Cc1ccccc1 (stereo unspecified)
- T/C (endpoint: mean survival time, dose: 3.13 mg/kg/injection, schedule: Q04DX002 (ip), vehicle: saline with Tween-80): 100 % of control
- T/C (endpoint: mean survival time, dose: 6.25 mg/kg/injection, schedule: Q04DX002 (ip), vehicle: saline with Tween-80): 100 % of control
- T/C (endpoint: mean survival time, dose: 12.5 mg/kg/injection, schedule: Q04DX002 (ip), vehicle: saline with Tween-80): 96 % of control

Compound: CCOC(=O)C1CC2(CC(C(N)=O)C2)C1 (stereo unspecified)
- T/C (endpoint: mean survival time, dose: 100.0 mg/kg/injection, schedule: Q01DX001 (ip), vehicle: saline): 103 % of control
- T/C (endpoint: mean survival time, dose: 200.0 mg/kg/injection, schedule: Q01DX001 (ip), vehicle: saline): 100 % of control
- T/C (endpoint: mean survival time, dose: 400.0 mg/kg/injection, schedule: Q01DX001 (ip), vehicle: saline): 93 % of control

Compound: O=S(=O)(F)c1ccc(N=C=S)cc1
- T/C [1]: 107 % of control
- T/C (endpoint: mean survival time, dose: 25.0 mg/kg/injection, schedule: Q01DX009 (ip), vehicle: saline with Tween-80): 97 % of control
- T/C [2]: 94 % of control
- T/C [3]: 97 % of control
- T/C [4]: 100 % of control

Compound: CC(=O)NO
- T/C (endpoint: median survival time, dose: 25.0 mg/kg/injection, schedule: Q03HX024 (ip), vehicle: water): 104 % of control
- T/C (endpoint: median survival time, dose: 50.0 mg/kg/injection, schedule: Q01DX009 (ip), vehicle: water): 101 % of control
- T/C (endpoint: median survival time, dose: 50.0 mg/kg/injection, schedule: Q03HX024 (ip), vehicle: water): 105 % of control
- T/C (endpoint: median survival time, dose: 62.5 mg/kg/injection, schedule: Q01DX009 (ip), vehicle: saline): 111 % of control
- T/C (endpoint: median survival time, dose: 62.5 mg/kg/injection, schedule: Q01DX009 (ip), vehicle: water): 99 % of control
- T/C (endpoint: median survival time, dose: 100.0 mg/kg/injection, schedule: Q01DX009 (ip), vehicle: water): 105 % of control
- T/C (endpoint: median survival time, dose: 100.0 mg/kg/injection, schedule: Q03HX024 (ip), vehicle: water): 114 % of control
- T/C (endpoint: median survival time, dose: 125.0 mg/kg/injection, schedule: Q01DX009 (ip), vehicle: saline): 111 % of control
- T/C (endpoint: median survival time, dose: 125.0 mg/kg/injection, schedule: Q01DX009 (ip), vehicle: water): 101 % of control
- T/C (endpoint: median survival time, dose: 250.0 mg/kg/injection, schedule: Q01DX009 (ip), vehicle: saline): 118 % of control
- T/C (endpoint: median survival time, dose: 250.0 mg/kg/injection, schedule: Q01DX009 (ip), vehicle: water): 111 % of control
- T/C (endpoint: median survival time, dose: 400.0 mg/kg/injection, schedule: Q01DX009 (ip), vehicle: water): 152 % of control
- T/C (endpoint: median survival time, dose: 400.0 mg/kg/injection, schedule: Q03HX024 (ip), vehicle: water): 241 % of control
- T/C (endpoint: median survival time, dose: 500.0 mg/kg/injection, schedule: Q01DX009 (ip), vehicle: saline): 152 % of control
- T/C (endpoint: median survival time, dose: 800.0 mg/kg/injection, schedule: Q01DX009 (ip), vehicle: water): 173 % of control and 183 % of control
- T/C (endpoint: median survival time, dose: 1000.0 mg/kg/injection, schedule: Q01DX009 (ip), vehicle: saline): 172 % of control

Compound: c1ccc(SCN2CCN(CSc3ccccc3)CC2)cc1
- T/C (endpoint: mean survival time, dose: 100.0 mg/kg/injection, schedule: Q01DX009 (ip), vehicle: saline): 91 % of control

Compound: CC1CCCCC1C(C)(C#N)Nc1ccccc1 (stereo unspecified)
- T/C [2]: 103 % of control
- T/C [3]: 104 % of control
- T/C [4]: 97 % of control

Compound: CCCCNC(=O)c1ccc2c(c1)C(=O)N(CCCC)C2=O
- T/C (endpoint: mean survival time, dose: 100.0 mg/kg/injection, schedule: Q04DX002 (ip), vehicle: saline with Tween-80): 101 % of control
- T/C (endpoint: mean survival time, dose: 200.0 mg/kg/injection, schedule: Q04DX002 (ip), vehicle: saline with Tween-80): 104 % of control
- T/C (endpoint: mean survival time, dose: 400.0 mg/kg/injection, schedule: Q04DX002 (ip), vehicle: saline with Tween-80): 93 % of control
